Measured values taken from patent US12384788B2, “1,4-dihydrobenzo[d]pyrazolo[3,4-f][1,3]diazepine derivatives and related compounds as LRRK2, NUAK1 and/or TYK2 kinase modulators for the treatment of e.g. autoimmune disease” (Origenis GMBH, priority 2019, dated 2025).

Target: T1, wt human TYK2, catalytic site (Homo sapiens, UniProt P29597)
T1 construct: wt human TYK2, catalytic site; purchased SignalChem
T1 sequence (P29597 897-1176 limits assumed): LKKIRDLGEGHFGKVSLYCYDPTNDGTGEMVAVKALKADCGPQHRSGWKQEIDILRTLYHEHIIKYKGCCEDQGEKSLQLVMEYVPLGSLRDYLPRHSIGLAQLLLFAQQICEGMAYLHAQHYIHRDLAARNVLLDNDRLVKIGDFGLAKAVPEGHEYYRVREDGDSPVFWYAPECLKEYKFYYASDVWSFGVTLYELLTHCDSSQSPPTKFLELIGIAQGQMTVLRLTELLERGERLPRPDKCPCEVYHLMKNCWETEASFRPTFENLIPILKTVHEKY
Assay: HTRF KinEASE assay, TYK2
Format: biochemical
Details: 1 μM ATP; read-out: IC50, inhibitory activity toward TYK2
Procedure: Basic protocol for HTRF KinEASE assay (Cisbio/FRA) inhibitor studies involved two steps:
Enzymatic step: Addition of 4 μl of test compound in corresponding DMSO dilutions, 4 μl of kinase/substrate mixture, 2 μl of ATP into 384 well small volume plates. Incubation for at least 30 minutes at room temperature.
Detection step: Addition of 5 μl antibody and 5 μl streptavidin-XL665, read plate after 60 minutes. Data analysis of emission ratios according to KinEASE assay protocol.
Kinase and assay components were adjusted to final concentrations according to the kit protocol. For TYK2: 2 nM wt human TYK2, catalytic site (SignalChem/CAN), 1 μM HTRF KinEASE-TK Substrate-biotin, 1 μM ATP in 1× Kinase Buffer

Fc1cccc(Cl)c1C1=Nc2cn[nH]c2-c2[nH]ncc2N1 [Compound 89, 5-(2-chloro-6-fluorophenyl)-4,9-dihydro-1H-dipyrazolo[4,3-d:3′,4′-f][1,3]diazepine]
IC50: 10 to 100 nM
